Data taken from US4364958A, “1-Substituted-3-cycloalkyl-sulfonyl-pyrrolidine-2,5-dione derivatives and fungicidal compositions thereof” (Chinoin Gyogyszer es Vegyeszeti Termekek Gyara Rt., priority 1979, dated 1982).
≈ marks a conversion by molar mass, not a printed value. Read-outs that look alike come from different tables or passages of the source.

What was measured:
[1] = test system: Fusarium culmorum DSM.11425; assay: minimal inhibitory concentration in Sabouraud medium; format: cell-based
From the text: Fusarium culmorum DSM.11425
(§1) As a medium Saboroud medium was employed.

[2] = test system: Fusarium monoliforme DSM.11778; assay: as above; format: cell-based; conditions: Fusarium
From the text: Fusarium monoliforme DSM.11778
as §1

[3] = test system: Trichophyton rubrum CBS.30338; assay: as above; format: cell-based; conditions: for MIC: Trichophyton rubrum
From the text: Trichophyton rubrum CBS.30338
as §1

[4] = test system: Fusarium graminocorum DSM.11802; assay: as above; format: cell-based
From the text: Fusarium graminocorum DSM.11802
as §1

[5] = test system: Candida albicans CBS.562; assay: as above; format: cell-based; conditions: 48 hours
From the text: Candida albicans CBS.562 "2"
as §1

[6] = test system: Verticillium albo-atrum; assay: activity against phytopathogenic fungi; format: cell-based
[7] = test system: Fusarium oxysporum DSM.10975; assay: minimal inhibitory concentration in Sabouraud medium; format: cell-based
From the text: Fusarium oxysporum DSM.10975
as §1

[8] = test system: Aspergillus niger CCM.F-330; assay: as above; format: cell-based; conditions: Aspergillus niger
From the text: Aspergillus niger CCM.F-330
as §1

[9] = test system: Penicillium chrysogenium CCM.F-362; assay: as above; format: cell-based; conditions: Penicillium
From the text: Penicillium chrysogenium CCM.F-362
as §1

[10] = test system: Venturia; assay: activity against phytopathogenic fungi; format: cell-based
[11] = test system: Botrytis cinerea; assay: activity against phytopathogenic fungi; format: cell-based
[12] = test system: Candida tropicalis CBS.433; assay: minimal inhibitory concentration in Sabouraud medium; format: cell-based; conditions: Candida tropicalis
From the text: Candida tropicalis CBS.433 "3"
as §1

[13] = test system: Cryptococcus neoform. 78/K16; assay: as above; conditions: read-out: minimal inhibitory concentration
Description: Sabouraud medium was inoculated with 10^5 /ml. germ number and the propagation of the fungi was examined after 24, 48, 72, 144 and 288 hours incubation time and the minimal inhibitory concentrations were determined.

[14] = test system: Cercospora beticola; assay: activity against phytopathogenic fungi; format: cell-based
[15] = test system: Ascochyta pisi; assay: activity against phytopathogenic fungi; format: cell-based
[16] = test system: Sclerotinia sclerotiorum; assay: activity against phytopathogenic fungi; format: cell-based
[17] = test system: Sporotrichum schenkii CBS.34035; assay: minimal inhibitory concentration in Sabouraud medium; format: cell-based; conditions: Sporotrichum
From the text: Sporotrichum schenkii CBS.34035
as §1

[18] = test system: Penicillium chrysogenium CBS.19646; assay: as above; format: cell-based; conditions: Penicillium
From the text: Penicillium chrysogenium CBS.19646
as §1

[19] = test system: Saccharomyces cerevisiae OKI.1282; assay: as above; format: cell-based; conditions: Saccharomyces cerevisiae, OKI.1282, 48 h, 48 hours
From the text: Saccharomyces cerevisiae OKI.1282
as §1

[20] = test system: Aspergillus fumigatus CBS.11326; assay: as above; format: cell-based; conditions: Aspergillus fumigatus
From the text: Aspergillus fumigatus CBS.11326
as §1

[21] = test system: Penicillium digitatum CBS.31948; assay: as above; format: cell-based; conditions: Penicillium digitatum
From the text: Penicillium digitatum CBS.31948
as §1

[22] = test system: Taphrina deformans; assay: activity against phytopathogenic fungi; format: cell-based
[23] = test system: Epidermophyton floccosum OKI/IV.; assay: minimal inhibitory concentration in Sabouraud medium; format: cell-based; conditions: for MIC: Epidermophyton floccosum, read-out: minimal inhibitory concentration
From the text: Epidermophyton floccosum OKI/IV.
as §1

[24] = test system: Phytophtora infestans; format: cell-based
[25] = test system: Verticillium dahlise; assay: activity against phytopathogenic fungi; format: cell-based
[26] = test system: Microsporum gypseum ver. vinosum CBS.10064; assay: minimal inhibitory concentration in Sabouraud medium; format: cell-based; conditions: Nannizzia gypsea
From the text: Microsporum gypseum ver. vinosum CBS.10064
as §1

[27] = test system: Aspergillus flavus CBS.24765; assay: as above; format: cell-based; conditions: Aspergillus flavus
From the text: Aspergillus flavus CBS.24765
as §1

[28] = test system: Trichophyton mentagrophytes CBS.50148; assay: as above; format: cell-based; conditions: Trichophyton mentagrophytes
From the text: Trichophyton mentagrophytes CBS.50148
as §1

[29] = test system: Penicillium digitatum CCM.F-382; assay: as above; format: cell-based; conditions: Penicillium digitatum
From the text: Penicillium digitatum CCM.F-382
as §1

[30] = test system: Candida krusei 79/K47; assay: as above; conditions: Pichia kudriavzevii, read-out: minimal inhibitory concentration
[31] = test system: Aspergillus niger CBS.12648; assay: as above; format: cell-based; conditions: for MIC: Aspergillus niger
From the text: Aspergillus niger CBS.12648
as §1

Cc1ccc(N2C(=O)CC(S(=O)(=O)C3CCCCC3)C2=O)cc1 (centres unmarked)
MIC ([1]; 72 hours): 75 µg/mL (≈ 224 µM) | MIC ([1]; 144 hours): 150 µg/mL (≈ 447 µM) | MIC ([1]; 288 hours): 150 µg/mL (≈ 447 µM) | MIC ([2]; DSM.11778, 72 h, 72 hours): 100 µg/mL (≈ 298 µM) | MIC ([2]; DSM.11778, 144 h, 144 hours): 150 µg/mL (≈ 447 µM) | MIC ([2]; DSM.11778, 288 h, 288 hours): 150 µg/mL (≈ 447 µM) | minimal inhibitory concentration ([3]; 144 hours): 2.5 µg/mL (≈ 7.45 µM) | minimal inhibitory concentration ([3]; 288 hours): 2.5 µg/mL (≈ 7.45 µM) | MIC ([3]; CBS.30338, 144 h, 144 hours): 5 µg/mL (≈ 14.9 µM) | MIC ([3]; CBS.30338, 288 h, 288 hours): 5 µg/mL (≈ 14.9 µM) | MIC ([4]; 72 hours): 50 µg/mL (≈ 149 µM) | MIC ([4]; 144 hours): 50 µg/mL (≈ 149 µM) | MIC ([4]; 288 hours): 50 µg/mL (≈ 149 µM) | minimal inhibitory concentration [5]: 25 µg/mL (≈ 74.5 µM) | MIC ([5]; Candida albicans, CBS.562, 48 h): 50 µg/mL (≈ 149 µM) | activity against Verticillium albo-atrum [6]: active | MIC ([7]; 72 hours): 150 µg/mL (≈ 447 µM) | MIC ([7]; 144 hours): 200 µg/mL (≈ 596 µM) | MIC ([7]; 288 hours): 200 µg/mL (≈ 596 µM) | MIC ([8]; CCM.F330, 72 h, 72 hours): 100 µg/mL (≈ 298 µM) | MIC ([8]; CCM.F330, 144 h, 144 hours): 150 µg/mL (≈ 447 µM) | MIC ([8]; CCM.F330, 288 h, 288 hours): 250 µg/mL (≈ 745 µM) | MIC ([9]; CCM.F362, 72 h, 72 hours): 75 µg/mL (≈ 224 µM) | MIC ([9]; CCM.F362, 144 h, 144 hours): 150 µg/mL (≈ 447 µM) | MIC ([9]; CCM.F362, 288 h, 288 hours): 150 µg/mL (≈ 447 µM) | activity against Venturia [10]: active | activity against Botrytis cinerea [11]: active | MIC ([12]; CBS.433, 24 h, 24 hours): 100 µg/mL (≈ 298 µM) | MIC ([12]; CBS.433, 48 h, 48 hours): 150 µg/mL (≈ 447 µM) | MIC ([13]; 24 h): 1 µg/mL (≈ 2.98 µM) | MIC ([13]; 48 h): 10 µg/mL (≈ 29.8 µM) | activity against Cercospora beticola [14]: active | activity against Ascochyta pisi [15]: active | activity against Sclerotinia sclerotiorum [16]: active | MIC ([17]; CBS.34035, 72 h, 72 hours): 5 µg/mL (≈ 14.9 µM) | MIC ([17]; CBS.34035, 288 h, 288 hours): 25 µg/mL (≈ 74.5 µM) | MIC ([18]; CBS.19646, 72 h, 72 hours): 50 µg/mL (≈ 149 µM) | MIC ([18]; CBS.19646, 144 h, 144 hours): 75 µg/mL (≈ 224 µM) | MIC ([18]; CBS.19646, 288 h, 288 hours): 75 µg/mL (≈ 224 µM) | MIC [19]: 25 µg/mL (≈ 74.5 µM) | MIC ([20]; CBS.11326, 72 h, 72 hours): 50 µg/mL (≈ 149 µM) | MIC ([20]; CBS.11326, 144 h, 144 hours): 150 µg/mL (≈ 447 µM) | MIC ([20]; CBS.11326, 288 h, 288 hours): 150 µg/mL (≈ 447 µM) | MIC ([21]; CBS.31948, 72 h, 72 hours): 10 µg/mL (≈ 29.8 µM) | MIC ([21]; CBS.31948, 144 h, 144 hours): 10 µg/mL (≈ 29.8 µM) | MIC ([21]; CBS.31948, 288 h, 288 hours): 10 µg/mL (≈ 29.8 µM) | activity against Taphrina deformans [22]: active | minimal inhibitory concentration ([23]; 72 hours): 2.5 µg/mL (≈ 7.45 µM) | MIC ([23]; 72 h): 5 µg/mL (≈ 14.9 µM) | MIC ([23]; 144 h): 5 µg/mL (≈ 14.9 µM) | MIC ([23]; 288 h): 5 µg/mL (≈ 14.9 µM) | activity against Phytophtora infestans [24]: active | activity against Verticillium dahlise [25]: active | MIC ([26]; 72 h): 10 µg/mL (≈ 29.8 µM) | MIC ([26]; 144 h): 25 µg/mL (≈ 74.5 µM) | MIC ([26]; 288 h): 25 µg/mL (≈ 74.5 µM) | MIC ([27]; CBS.24765, 72 h, 72 hours): 150 µg/mL (≈ 447 µM) | MIC ([27]; CBS.24765, 144 h, 144 hours): 250 µg/mL (≈ 745 µM) | MIC ([28]; CBS.50148, 72 h, 72 hours, read-out: minimal inhibitory concentration): 2.5 µg/mL (≈ 7.45 µM) | MIC ([28]; CBS.50148, 144 h, 144 hours, read-out: minimal inhibitory concentration): 2.5 µg/mL (≈ 7.45 µM) | MIC ([28]; CBS.50148, 288 h, 288 hours, read-out: minimal inhibitory concentration): 5 µg/mL (≈ 14.9 µM) | MIC ([28]; CBS.50148, read-out: Minimal inhibitory concentration inhibiting the growth): 2.5 µg/mL (≈ 7.45 µM) | MIC ([29]; CCM.F382, 72 h, 72 hours): 25 µg/mL (≈ 74.5 µM) | MIC ([29]; CCM.F382, 144 h, 144 hours): 25 µg/mL (≈ 74.5 µM) | MIC ([29]; CCM.F382, 288 h, 288 hours): 75 µg/mL (≈ 224 µM) | MIC ([30]; 79/K47, 24 h): 2.5 µg/mL (≈ 7.45 µM) | MIC ([30]; 79/K47, 48 h): 10 µg/mL (≈ 29.8 µM) | minimal inhibitory concentration ([31]; 144 hours): 50 µg/mL (≈ 149 µM) | MIC ([31]; CBS.12648, 72 h, 72 hours): 25 µg/mL (≈ 74.5 µM) | MIC ([31]; CBS.12648, 144 h, 144 hours): 75 µg/mL (≈ 224 µM) | MIC ([31]; CBS.12648, 288 h, 288 hours): 75 µg/mL (≈ 224 µM)
